Reference: patent US9572786B2, “Use of capsiate or dihydrocapsidate” (Catholic University Industry Academy Cooperation Foundation, priority 2007, dated 2017)

Key:
NF-κB = experiment: UV-induced NF-κB activation, immunohistochemical staining; format: cell-based, human; conditions: HaCaT cells; 25 μM; UV 100 J/m^2; 4 hours
Experimental: In order to investigate whether the transcription factor NF-κB is activated, the human keratinocyte cell line HaCaT cells were stained by immunohistochemical staining as follows.
The cells were placed on a 14 mm culture slide and cultured for 24 hours in DMEM containing 10% FBS. Subsequently, the cells were cultured for 24 hours in DMEM containing 1% FBS until starvation. Then, after treating with 25 μM capsiate for 30 minutes, followed by washing 3 times with PBS, UV was irradiated at an intensity of 100 J/m^2. Immediately after the UV irradiation, the cells were washed again with PBS and further cultured for 4 hours in DMEM containing 1% FBS, which was treated with capsiate at the same concentration as in the pre-treatment. The cells were fixed for 5 minutes using methanol for immunohistochemical staining.
The fixed cells were blocked using 10% normal goat serum and washed 3 times with PBS. After fluorescence staining NF-κB using rabbit anti-NF-κB antibody (Santa Cruz, USA) and Alexa 488-labeled anti-rabbit IgG secondary antibody (Invitrogen, USA), counter staining was carried out using Hoechst (Sigma, St. Louis, Mo.).

T cells = experiment: Proliferation of T cells, thymidine (H3) incorporation; format: cell-based, C57/BL6 mouse; conditions: mouse spleen T cells; 25 uM; vs control group
Experimental: T cells were isolated from mouse spleen in order to investigate the effect of capsiate on the proliferation of T cells. Specifically, the spleen of C57/BL6 mouse was taken out and pulverized as single cells. After lysing red blood cells using an RBC lysis buffer (Sigma, USA), other cells were washed 3 times using cell culture medium (RPMI 1640 complete medium). The cell culture medium is prepared by adding 10% FBS, 10 mM HEPES, 100 μg/mL penicillin, 100 μg/mL streptomycin, 2 mM L-glutamine, 1 mM sodium pyruvate and 50 uM 2-mercaptoethanol. From the cells, only the T cells were separated using a T cell enrichment column (R&D, USA).
5×10^5 of the isolated T cells were placed on a 96-well plate and capsiate was treated at a concentration of 25 uM. Proliferation of T cells was induced by adding 0.1 μg/mL α-CD3a and 2 μg/mL α-CD28, or 1 μg/mL α-CD3a and 2 μg/mL α-CD28. The degree of cell proliferation was compared to that of the control group which was not treated with capsiate. Specifically, after culturing the T cells for 24 hours, thymidine (H3) was added at a concentration of 1 uCi per well and the T cells were harvested 16 hours later using a membrane filter (Skatron, England) and a cell harvester. The harvested T cells were lysed in LSC cocktail solution (Ultima Gold, PerkinElmer, USA) and H3's CPM value was measured using a beta counter (Packard, USA).

MMP-2 = experiment: Zymography of secreted MMP-2 after UV; format: cell-based, human; conditions: HaCaT culture medium; 10, 25, 50 μM; UV 100 J/m^2; 36 hours
Experimental: Zymography was carried out in order to investigate the decrease of expression and activity of MMP-2 and MMP-9 in protein level.
5×10^5 HaCaT cells were placed on a 60 mm Petri dish and cultured for 24 hours in DMEM containing 10% FBS. Subsequently, the cells were cultured for 24 hours in DMEM containing 1% FBS until starvation. Then, after treating with capsiate at different concentrations (10 μM, 25 μM, 50 μM) for 30 minutes, followed by washing 3 times with PBS, UV was irradiated at an intensity of 100 J/m^2. Immediately after the UV irradiation, the cells were washed again with PBS and further cultured for 36 hours in DMEM containing 1% FBS, which was treated with capsiate at the same concentration as in the pre-treatment. After collecting the culture medium, the activity of MMP-2 and MMP-9 proteins secreted from the cells into the medium was measured. To this end, the mediums obtained from the same number of cells were concentrated to the same volume, and the temperature was maintained at 4° C. in order to avoid the effect on the protein activity.
Thus prepared sample was subjected to electrophoresis at 4° C. using 7.5% acrylamide gel containing gelatin but without sodium dodecyl sulfate (SDS). […]

JNK = experiment: MAPK signaling in mouse skin tissue, Western blotting: JNK; format: in vivo; conditions: hairless mouse; UV+CPT vs UV with acetone only
Experimental: In order to investigate the intracellular mechanism (signaling) related with the inhibition of COX-2 expression by capsiate, Western blotting was carried out for MAPK signaling-related proteins (ERK, p-ERK, p38, p-p38 and JNK, p-JNK) as in Example 2-2, using proteins isolated from the mouse skin tissue.

MMP-9 = MMP-9 mRNA in mouse skin, RT-PCR; format: in vivo; conditions: mouse tissue of Example 5; normalized using GAPDH
Experimental: mRNA was extracted from the mouse tissue of each test group of Example 5 and the level of expression thereof was evaluated in order to investigate the effect of capsiate on the expression of MMP-2 and MMP-9 induced by angiogenesis and immune response.
For RNA extraction from the tissue, each mouse tissue was subjected to skin biopsy, quickly frozen in liquid nitrogen and finely ground using a mortar. RNA was extracted from the mouse tissue using Trizol (Invitrogen, USA). PCR (PTC-225 Peltier thermal cycler, MJ Research, USA) was carried out using the RNA as template and using a commercial kit (reverse transcription system, Qiagen, USA). As a result, cDNA for each test group was prepared.
RT-PCR (Rotor Gene 6 series, Corbett Research, Australia) was carried out using thus prepared cDNA as template and using MMP-2 and MMP-9 primers (Qiagen, USA). The level of mRNA expression for MMP was normalized using GAPDH. The level of expression was compared with that of the non-treated group, which was treated with acetone only.

SMILES: COc1cc(COC(=O)CCCC/C=C/C(C)C)ccc1O [capsiate]
- UV-induced migration of NF-κB into the nuclei (NF-κB): inhibits
- proliferation of T cells induced by α-CD3a and α-CD28 (T cells): significant inhibition
- expression and activity of MMP-2 (zymography) (MMP-2): inhibited expression and activity
- expression and activity of pro-MMP-2 (zymography) (MMP-2): inhibited expression and activity
- JNK (phosphorylation) in mouse skin tissue (JNK): no significant difference
- expression of MMP-9 (mRNA) in mouse skin tissue (MMP-9): decreased
